Test results from ChEMBL document CHEMBL1122174, “Behavioral and serotonin receptor properties of 4-substituted derivatives of the hallucinogen 1-(2,5-dimethoxyphenyl)-2-aminopropane” (J Med Chem, 1982).
Calls of active or inactive are those of the source. The rule behind the calls is not given here.

Key:
[1] = test system: Rattus norvegicus; test: Number of rats responding out of 5 treated rats at a dose of 0.125 mg/Kg; type: functional
[2] = test system: Rattus norvegicus; test: Number of rats responding out of 5 treated rats at a dose of 0.25 mg/Kg; type: functional
[3] = species: Rattus norvegicus; test: Dose at which the rats perform 50% appropriate drug -lever responding was determined; type: functional
[4] = test system: Rattus norvegicus; test: Dose required to produce 50% hallucinogenic potency in rat was determined at a dose of 0.25 mg/kg; type: functional
[5] = test system: Rattus norvegicus; test: Dose required to produce 50% hallucinogenic potency in rat was determined at a dose of 0.75 mg/kg; type: functional
[6] = test system: Rattus norvegicus; test: Dose required to produce 50% hallucinogenic potency in rat was determined at a dose of 0.5 mg/kg; type: functional
[7] = test system: Rattus norvegicus; test: Number of rats responding out of 5 treated rats at a dose of 0.5 mg/Kg; type: functional
[8] = target: Serotonin (5-HT) receptor; test: Binding affinity at rat 5-hydroxytryptamine receptor.; type: protein assay
[9] = test system: Rattus norvegicus; test: Dose required to produce 50% hallucinogenic potency in rat was determined at a dose of 0.125 mg/kg; type: functional
[10] = test system: Rattus norvegicus; test: Number of rats responding out of 5 treated rats at a dose of 0.75 mg/Kg; type: functional
[11] = test system: Rattus norvegicus; test: Number of rats responding out of 5 treated rats at a dose of 1 mg/Kg; type: functional
[12] = test system: Rattus norvegicus; test: Dose required to produce 50% hallucinogenic potency in rat was determined at a dose of 1 mg/kg; type: functional
[13] = test system: Rattus norvegicus; test: Number of rats responding out of 5 treated rats at a dose of 1.5 mg/Kg; type: functional
[14] = test system: Rattus norvegicus; test: Dose required to produce 50% hallucinogenic potency in rat was determined at a dose of 4 mg/kg; Disruption behavior; type: functional, organism-based; set-up: dose 4 mg/kg
[15] = species: Homo sapiens; test: Hallucinogenic potency was determined in humans; type: functional
[16] = test system: Rattus norvegicus; test: Dose required to produce 50% hallucinogenic potency in rat was determined at a dose of 1.5 mg/kg; type: functional
[17] = test system: Rattus norvegicus; test: Dose required to produce 50% hallucinogenic potency in rat was determined at a dose of 0.2 mg/kg; type: functional
[18] = test system: Rattus norvegicus; test: Dose required to produce 50% hallucinogenic potency in rat was determined at a dose of 0.15 mg/kg; type: functional
[19] = test system: Rattus norvegicus; test: Number of rats responding out of 5 treated rats at a dose of 0.15 mg/Kg; type: functional
[20] = test system: Rattus norvegicus; test: Dose required to produce 50% hallucinogenic potency in rat was determined at a dose of 0.1 mg/kg; type: functional
[21] = test system: Rattus norvegicus; test: Number of rats responding out of 5 treated rats at a dose of 0.10 mg/Kg; type: functional
[22] = test system: Rattus norvegicus; test: Number of rats responding out of 5 treated rats at a dose of 0.20 mg/Kg; type: functional
[23] = test system: Rattus norvegicus; test: Dose required to produce 50% hallucinogenic potency in rat was determined at a dose of 4 mg/kg; type: functional
[24] = test system: Rattus norvegicus; test: Dose required to produce 50% hallucinogenic potency in rat was determined at a dose of 2 mg/kg; type: functional
[25] = test system: Rattus norvegicus; test: Number of rats responding out of 5 treated rats at a dose of 4 mg/Kg; type: functional
[26] = test system: Rattus norvegicus; test: Number of rats responding out of 5 treated rats at a dose of 5 mg/Kg; type: functional
[27] = test system: Rattus norvegicus; test: Number of rats responding out of 5 treated rats at a dose of 2 mg/Kg; type: functional
[28] = test system: Rattus norvegicus; test: Dose required to produce 50% hallucinogenic potency in rat was determined at a dose of 3 mg/kg; type: functional
[29] = test system: Rattus norvegicus; test: Number of rats responding out of 5 treated rats at a dose of 3 mg/Kg; type: functional
[30] = test system: Rattus norvegicus; test: Dose required to produce 50% hallucinogenic potency in rat was determined at a dose of 2.5 mg/kg; type: functional
[31] = test system: Rattus norvegicus; test: Number of rats responding out of 5 treated rats at a dose of 2.5 mg/Kg; type: functional
[32] = test system: Rattus norvegicus; test: Dose required to produce 50% hallucinogenic potency in rat was determined at a dose of 5 mg/kg; type: functional
[33] = test system: Rattus norvegicus; test: Number of rats responding out of 5 treated rats at a dose of 8 mg/Kg; type: functional
[34] = test system: Rattus norvegicus; test: Dose required to produce 50% hallucinogenic potency in rat was determined at a dose of 9 mg/kg; type: functional
[35] = test system: Rattus norvegicus; test: Dose required to produce 50% hallucinogenic potency in rat was determined at a dose of 8 mg/kg; type: functional
[36] = test system: Rattus norvegicus; test: Dose required to produce 50% hallucinogenic potency in rat was determined at a dose of 2.0 mg/kg; type: functional
[37] = test system: Rattus norvegicus; test: Number of rats responding out of 5 treated rats at a dose of 9 mg/Kg; type: functional
[38] = test system: Rattus norvegicus; test: Number of rats responding out of 5 treated rats at a dose of 10 mg/Kg; type: functional
[39] = test system: Rattus norvegicus; test: Dose required to produce 50% hallucinogenic potency in rat was determined at a dose of 5.5 mg/kg; type: functional
[40] = test system: Rattus norvegicus; test: Number of rats responding out of 5 treated rats at a dose of 3.5 mg/Kg; type: functional
[41] = test system: Rattus norvegicus; test: Dose required to produce 50% hallucinogenic potency in rat was determined at a dose of 3.5 mg/kg; type: functional
[42] = test system: Rattus norvegicus; test: Dose required to produce 50% hallucinogenic potency in rat was determined at a dose of 3.0 mg/kg; type: functional
[43] = test system: Rattus norvegicus; test: Number of rats responding out of 5 treated rats at a dose of 5.5 mg/Kg; type: functional
[44] = test system: Rattus norvegicus; test: Dose required to produce 50% hallucinogenic potency in rat was determined at a dose of 5.0 mg/kg; type: functional
[45] = test system: Rattus norvegicus; test: Dose required to produce 50% hallucinogenic potency in rat was determined at a dose of 3 mg/kg; Disruption behavior; type: functional, organism-based; set-up: dose 3 mg/kg
[46] = test system: Rattus norvegicus; test: Dose required to produce 50% hallucinogenic potency in rat was determined at a dose of 2 mg/kg; Disruption behavior; type: functional, organism-based; set-up: dose 2 mg/kg

COc1cc(C[C@@H](C)N)c(OC)cc1I
No. of animals [1]: 5
No. of animals [2]: 5
ED50 [3]: 0.26 mg/kg
DOM [4]: 47%
DOM [5]: 96%
DOM [6]: 75%
No. of animals [7]: 5
pA2 [8]: 7.63
DOM [9]: 18%
No. of animals [10]: 5

COc1cc([N+](=O)[O-])c(OC)cc1C[C@@H](C)N
ED50 [3]: 0.57 mg/kg
No. of animals [11]: 5
DOM [12]: 93%
DOM [5]: 61%
DOM [6]: 44%
No. of animals [7]: 5
pA2 [8]: 7.49
No. of animals [10]: 5

COc1ccc(C[C@@H](C)N)cc1
No. of animals [13]: 1
No. of animals [11]: 3
DOM [12]: 20%
DOM [6]: 18%
No. of animals [7]: 5
DOM [14]: inactive

COc1cc(C[C@H](C)N)c(OC)cc1Br
No. of animals [13]: 5
ED50 [3]: 0.81 mg/kg
HHP [15]: 4 mg
DOM [5]: 35%
DOM [6]: 20%
DOM [16]: 96%
No. of animals [7]: 5
No. of animals [10]: 5

COc1cc(C[C@@H](C)N)c(OC)cc1Br
DOM [17]: 91%
DOM [18]: 79%
ED50 [3]: 0.1 mg/kg
HHP [15]: 0.4 mg
No. of animals [19]: 5
DOM [20]: 47%
No. of animals [21]: 5
No. of animals [22]: 5

COc1cccc(CC(C)N)c1 (racemic)
DOM [23]: 10%
DOM [24]: 8%
No. of animals [25]: 3
DOM [14]: inactive
No. of animals [26]: 1
No. of animals [27]: 5

COc1ccccc1CC(C)N (racemic)
DOM [24]: 2%
No. of animals [25]: 2
DOM [14]: inactive
DOM [28]: 7%
No. of animals [27]: 5
No. of animals [29]: 4

COc1cc(Br)c(OC)c(CC(C)N)c1 (racemic)
No. of animals [11]: 5
DOM [12]: 2%
DOM [24]: 3%
DOM [28]: 0%
No. of animals [27]: 5
No. of animals [29]: 4

COc1cc(CC(C)N)c(OC)cc1F (racemic)
ED50 [3]: 1.45 mg/kg
No. of animals [11]: 5
DOM [12]: 43%
DOM [30]: 66%
DOM [5]: 25%
DOM [6]: 6%
DOM [16]: 45%
No. of animals [7]: 5
No. of animals [31]: 5
DOM [28]: 88%
pA2 [8]: 7.2
No. of animals [10]: 5

COc1cc(CC(C)N)c(OC)cc1I (racemic)
No. of animals [2]: 5
ED50 [3]: 0.42 mg/kg
HHP [15]: 0.8 mg
No. of animals [11]: 5
DOM [4]: 31%
DOM [12]: 93%
DOM [5]: 80%
DOM [6]: 41%
No. of animals [7]: 5
pA2 [8]: 7.49
No. of animals [10]: 5

CCc1cc(OC)c(CC(C)N)cc1OC (racemic)
No. of animals [1]: 5
No. of animals [2]: 5
ED50 [3]: 0.23 mg/kg
HHP [15]: 1.5 mg
DOM [4]: 44%
DOM [6]: 99%
No. of animals [7]: 5
DOM [9]: 10%

CCOc1cc(OC)c(CC(C)N)cc1OC (racemic)
DOM [32]: 16%
ED50 [3]: 6.33 mg/kg
HHP [15]: 30 mg
No. of animals [33]: 5
DOM [34]: 85%
DOM [35]: 68%
No. of animals [26]: 5
DOM [36]: 2%
No. of animals [37]: 4
No. of animals [27]: 5
pA2 [8]: 6.78
No. of animals [38]: 1

COc1cc([N+](=O)[O-])c(OC)cc1CC(C)N (racemic)
No. of animals [13]: 5
ED50 [3]: 0.76 mg/kg
No. of animals [11]: 4
DOM [12]: 55%
DOM [6]: 32%
DOM [16]: 87%
No. of animals [7]: 5
pA2 [8]: 7.07

COc1cc(OC)c(OC)cc1CC(C)N (racemic)
DOM [23]: 70%
ED50 [3]: 3.59 mg/kg
HHP [15]: 20 mg
DOM [39]: 90%
No. of animals [40]: 5
DOM [41]: 59%
DOM [42]: 20%
No. of animals [25]: 5
No. of animals [26]: 5
No. of animals [43]: 6
DOM [44]: 81%

COc1ccc(OC)c(CC(C)N)c1 (racemic)
HHP [15]: 50 mg
ED50 [42]: 5.51 mg/kg

CC(N)Cc1ccccc1 (racemic) [AMPHETAMINE]
No. of animals [13]: 3
No. of animals [11]: 5
DOM [12]: 2%
DOM [45]: inactive
DOM [46]: inactive
DOM [16]: 26%
No. of animals [27]: 1
No. of animals [29]: 0

COc1cc(CC(C)N)c(OC)cc1Br (racemic) [BROLAMFETAMINE]
No. of animals [1]: 5
DOM [17]: 51%
No. of animals [2]: 5
ED50 [3]: 0.2 mg/kg
HHP [15]: 0.8 mg
DOM [4]: 70%
DOM [6]: 91%
No. of animals [7]: 5
DOM [9]: 18%
No. of animals [22]: 5

COc1cc(CC(C)N)c(OC)cc1C (racemic) [DOM]
HHP [15]: 2 mg
ED50 [42]: 0.44 mg/kg

COc1ccc(CC(C)N)cc1 (racemic) [PARA-METHOXYAMPHETAMINE]
No. of animals [13]: 2
No. of animals [11]: 4
DOM [12]: 15%
DOM [6]: 13%
No. of animals [7]: 5
DOM [14]: inactive
